Key:
[1] = tested on: PG receptors such as EP and FP receptors; conditions: Journal of Ocular Pharmacology and Therapeutics 17(5), 433-441, 2001; cited from earlier work
[2] = tested on: male Wistar rats; experiment: Effect on bicarbonate secretion into bile in rats after oral dosing; format: in vivo, rat
Procedure: The effect of Compound A (13,14-dihydro-15-keto-16,16-difluoro-18(S)-methyl-PGE1) on Gastrointestinal bicarbonate secretion was studied.
Seven weeks old male Wistar rats were used in this study. Compound A at a dose of 100 μg/kg was administered orally to the animals three times daily for 7 days. Control animals received an equal volume of the vehicle (distilled water containing 0.01% polysorbate 80 and 0.5% ethanol). On the next morning of the final administration (about 17 hours after the final administration), a polyethylene catheter (PE10, Becton Dickinson and Company) was inserted into the common bile duct of the animal under ether anesthesia. The animals were placed into a Borrmann's cage individually and allowed to recover from the anesthesia for 1 hour. Bile was collected for 1 hour between 1 and 2 hours after inserting the catheter. The amount of bicarbonate (HCO3^−) in the bile was measured with an automated pH/blood gas analyzer (model 170, Ciba Corning Diagnostics Corp.).

SMILES	affinity for PG receptors such as EP and FP receptors [1]	amount of bicarbonate secreted into the bile compared with the control group ([2]; 100 μg/kg orally three times daily for 7 days, Wistar rats)	Bicarbonate secretion Mean ± S.E. ([2]; 100 μg/kg p.o., TID for 7 days, bile collected for 1 hour, about 17 hours after the final administration, n=7, *p < 0.05 compared with control group (control 10.16 ± 0.81))
CCCCCCCC(=O)CC[C@@H]1[C@@H](C/C=C\CCCC(=O)OC(C)C)[C@@H](O)C[C@H]1O [unoprostone isopropyl]	does not have affinity	–	–
CC[C@H](C)CC(F)(F)C(=O)CC[C@H]1[C@H](O)CC(=O)[C@@H]1CCCCCCC(=O)O [Compound A, 13,14-dihydro-15-keto-16,16-difluoro-18(S)-methyl-PGE1]	–	increased significantly	13.33 ± 1.00* μmol/hr/100 g body weight

Reference: patent US8530519B2, “Method for promoting upper gastrointestinal bicarbonate secretion” (Sucampo AG, priority 2006, dated 2013)
